Consider four molecules from patent publication US20070274946A1, “Tolerance to Graft Prior to Thymic Reactivation” (Norwood Immunoloty, Ltd., priority 1999, published 2007).

Assay [1] in a line: Chemical castration of aged female Balb/cJ mice, radioimmunoassay of plasma sex steroids. In kind it is in vivo. Particulars: 10 mg/kg s.c., 1 month slow release formulation. How it is done:
To do this, aged (i.e., 2 year old) female Balb/cJ (H-2d) mice are either surgically castrated (e.g., by removing the ovaries according to standard methods), or are chemically castrated. For chemical castration, mice are injected subcutaneously with 10 mg/kg Lupron (a GnRH agonist) as a 1 month slow release formulation. Alternatively mice are injected with a GnRH antagonist (e.g., Cetrorelix or Abarelix). Confirmation of loss of sex steroids is performed by standard radioimmunoassay of plasma samples following manufacturer's instructions, and may be monitored throughout the procedure.

Assay [2] is described as follows: Chemical castration versus surgical castration after cyclophosphamide T cell depletion. In kind it is in vivo, mice. The text has this:
FIG. 9: Changes in thymus (open bars), spleen (gray bars) and lymph node (black bars) cell numbers following treatment with cyclophosphamide, a chemotherapy agent, and surgical or chemical castration performed on the same day. Note the rapid expansion of the thymus in castrated animals when compared to the non-castrate (cyclophosphamide alone) group at 1 and 2 weeks post-treatment. In addition, spleen and lymph node numbers of the castrate group were well increased compared to the cyclophosphamide alone group. (n=3-4 per treatment group and time point).
Old mice (e.g., 2 years old) were injected with cyclophosphamide (200 mg/kg body wt over two days) and castrated.
FIG. 9 illustrates the use of chemical castration compared to surgical castration in enhancement of T cell regeneration. […] The enhancing effects were equivalent on thymic expansion and also the recovery of spleen and lymph node. The kinetics of chemical castration are slower than surgical, that is, mice take about 3 weeks longer to decrease their circulating sex steroid levels. However, chemical castration is still as effective as surgical castration and can be considered to have an equivalent effect.

Assay [3] in a line: IL-7 administration with or without castration after allogeneic HSCT, thymic cellularity. Type of assay: in vivo, mice. The text has this: Male C57BL/6J (B6, H-2b), C3FeB6F1/J([B6 3 C3H]F1; H-2b/k), B10.BR (H-2k), B6D2F1/J (H-2b/d), CBA/J (H-2k), Balb/c (H2-d), IL7−/− and KGF−/− mice were obtained from the Jackson Laboratory (Bar Harbor, Maine) and used in experiments when they were between 8 and 12 weeks of age. KGF−/− and IL7−/− were used between 4 and 7 months of age. HSCT protocols were approved by the Memorial Sloan-Kettering Cancer Center Institutional Animal Care and Use Committee. The BM cells were removed aseptically from femurs and tibias. Donor BM was depleted of T cells by incubation with anti-Thy-1.2 for 30 minutes at 4° C. followed by incubation with Low-TOX-M rabbit complement (Cedarlane Laboratories, Hornby, ON, Canada) for 1 hour at 37° C. Splenic T cells (for GVHD analysis) were obtained by purification over a nylon wool column followed by red cell removal with ammonium chloride red cell lysis buffer. Cells (5×10^6 BM cells with or without splenic T cells and leukemia cells) were resuspended in Dulbecco modified essential medium (Life Technologies, Grand Island, N.Y.) and transplanted by tail vein infusion (0.25 mL total volume) into lethally irradiated recipients on day 0. Prior to transplantation, on day 0, recipients received 1300 cGy total body irradiation (^137Cs source) as split dose with 3 hours between doses (to reduce gastrointestinal toxicity). Mice were housed in sterilized microisolator cages and received normal chow and autoclaved hyperchlorinated drinking water (pH 3.0).
IL-7 were either given from days 0 to 13 or 21 to 27 intraperitoneally at 10 μg/day for immune reconstitution studies. PBS was injected into control mice at the same time points.
BM cells, splenocytes or thymocytes were washed in FACS buffer (phosphate buffered saline (PBS)/2% bovine serum albumin (BSA)/0.1% azide) and 1-3×10^6 cells were incubated for 30 minutes at 4° C. with CD16/CD32 FcR block. Cells were then incubated for 30 minutes at 4° C. with primary antibodies and washed twice with FACS buffer. Where necessary, cells were incubated with conjugated Streptavidin for a further 30 minutes at 4° C. The stained cells were resuspended in FACS buffer and analyzed on a FACSCalibur™ flow cytometer (Becton Dickinson, San Jose, Calif.) with CellQuest™ software.

Assay [4] deals with IL-7-dependent murine pre-B cell line 2E8. In words: Thymidine incorporation proliferation assay with IL-7-dependent cell line. Particulars: 2E8 cells. Type of assay: cell-based. How it is done: Tissue culture medium consisted of RPMI 1640 supplemented with 10% heat inactivated fetal calf serum, 100 U/mL penicillin, […] streptomycin, and 2 mM L-glutamine (as well as […] 2-mercaptoethanol for the culture of 32Dp210 cells and proliferation assays).

The conditions of assay [5]: chronic administration; cited from earlier work.
A short description of assay [6]: Sex steroid ablation therapy of the patient with an LHRH agonist (Example 6). Particulars: single dose effective for 3 months. Type of assay: in vivo, human. As to the method: The patient was given sex steroid ablation therapy in the form of delivery of an LHRH agonist. This was given in the form of either Leucrin (depot injection; 22.5 mg) or Zoladex® (implant; 10.8 mg), either one as a single dose effective for 3 months. […] In some cases it is also necessary to deliver a suppresser of adrenal gland production of sex steroids. Cosudex® (5 mg/day or 50 mg/day) may also be given as one tablet per day for the duration of the sex steroid ablation therapy. Alternatively, the patient is given a GnRH antagonist, e.g., Cetrorelix or Abarelix as a subcutaneous injection

Take `CCNC(=O)[C@@H]1CCCN1C(=O)[C@H](CCCNC(=N)N)NC(=O)[C@H](CC(C)C)NC(=O)[C@@H](CC(C)C)NC(=O)[C@H](Cc1ccc(O)cc1)NC(=O)[C@H](CO)NC(=O)[C@H](Cc1c[nH]c2ccccc12)NC(=O)[C@H](Cc1c[nH]cn1)NC(=O)[C@@H]1CCC(=O)N1` [Lupron, leuprolide acetate]: the “time post injection to castrate levels (<0.5 ng estrogen/ml)” value in assay [1] is on record as 3-4 weeks.

On to `CCNC(=O)[C@@H]1CCCN1C(=O)[C@H](CCCN=C(N)N)NC(=O)[C@H](CC(C)C)NC(=O)[C@@H](Cc1c[nH]c2ccccc12)NC(=O)[C@H](Cc1ccc(O)cc1)NC(=O)[C@H](CO)NC(=O)[C@H](Cc1c[nH]c2ccccc12)NC(=O)[C@H](Cc1cnc[nH]1)NC(=O)[C@@H]1CCC(=O)N1` [Deslorelin], for which the “additional time to decrease circulating sex steroid levels versus surgical castration” value in assay [2] (chemical castration) is given as “about 3 weeks”. Further, the “rate of regeneration post-cyclophosphamide treatment compared to surgical castration” value in assay [2] (injected for four weeks, T cell regeneration) is listed as “comparable rate of regeneration”. In addition, the “enhancing effects on thymic expansion and recovery of spleen and lymph node versus surgical castration” value in assay [2] (post-cyclophosphamide) is “equivalent”.

Take “IL-7: Recombinant human IL-7 provided by Cytheris”: the “thymic cellularity, combined treatment (castration and IL-7)” value in assay [3] (day 14 after allo-HSCT) is reported as “significantly more cells”. In assay [3] (day 14 after allo-HSCT, 10 ug/day i.p. days 0-13), the “thymic cellularity, IL-7 treated sham-castrated versus PBS treated sham-castrated” value was “no difference”. Further, in assay [3] (day 28 after allo-HSCT), the “effect of IL-7 treatment combined with castration on thymic cellularity” value was “additive effect” and the “thymic cellularity, IL-7 alone group versus control group” value was “significantly higher”. In assay [4], the “proliferative effect on murine cells” value is recorded as “equal to murine IL-7”.

On to `CC(C)C[C@H](NC(=O)[C@@H](COC(C)(C)C)NC(=O)[C@H](Cc1ccc(O)cc1)NC(=O)[C@H](CO)NC(=O)[C@H](Cc1c[nH]c2ccccc12)NC(=O)[C@H](Cc1cnc[nH]1)NC(=O)[C@@H]1CCC(=O)N1)C(=O)N[C@@H](CCCNC(=N)N)C(=O)N1CCC[C@H]1C(=O)NNC(N)=O` [Zoladex, goserelin acetate], for which, in assay [5], the “serum testosterone levels in males” value was “a range normally seen in surgically castrated men” and the “time to sustained suppression of pituitary LH after initiation of therapy” value is reported as “approximately three”. Moreover, in assay [6], the “reduction of sex steroid levels” value was “effective in reducing sex steroid levels sufficiently to reactivate the thymus”.
